Reference: ChEMBL document CHEMBL5505993, “Identification of a ferritinophagy inducer via sinomenine modification for the treatment of colorectal cancer” (Eur J Med Chem, 2024)
Activity calls are given as the source filed them. The rule behind the calls is not given here.

How the values were obtained:
HCT-116 [1] = experiment: Induction of ferroptosis in human HCT-116 cells assessed as increase in ferrous ion level in lysosomes at 20 uM incubated for 12 hrs by Lyso tracker red staining based confocal fluorescence microscopic analysis; format: functional, cell-based
HCT-116 [2] = experiment: Antitumor activity against human HCT-116 cells xenografted in BALB/c mouse assessed as reduction in tumor weight at 60 mg/kg,ip administrated daily for 14 days; format: functional, organism-based; settings: time 14.0 day
[3] = Toxicity in BALB/c mouse xenografted with human HCT-116 cells assessed as histopathological changes in lung at 60 mg/kg,ip administrated daily for 14 days by hematoxylin and eosin staining based microscopic analysis; format: organism-based; settings: in vivo, 336 h, time 14 day
HCT-116 [4] = experiment: Antitumor activity against human HCT-116 cells xenografted in BALB/c mouse assessed as increase in LC3B expression at 60 mg/kg,ip administrated daily for 14 days by immunohistochemistry; format: functional, organism-based; settings: time 14.0 day
HCT-116 [5] = experiment: Cytotoxicity against human HCT-116 cells assessed as inhibition of cell growth incubated for 12 hrs by CCK-8 assay; format: functional, cell-based; settings: HCT-116, 12 h
[6] = Cytotoxicity against human NCM460 cells assessed as inhibition of cell growth incubated for 48 hrs by CCK-8 assay; format: toxicity, cell-based
HCT-116 [7] = experiment: Antitumor activity against human HCT-116 cells xenografted in BALB/c mouse assessed as increase in LC3B expression at 30 mg/kg,ip administrated daily for 14 days by immunohistochemistry; format: functional, organism-based; settings: time 14.0 day
HCT-116 [8] = experiment: Induction of autophagy in human HCT-116 cells assessed as increase in 4-HNE level at 20 uM incubated for 12 hrs in presence of autophagy inhibitor, Bafilomycin A1 by ELISA; format: functional, cell-based
HCT-116 [9] = experiment: Antitumor activity against human HCT-116 cells xenografted in BALB/c mouse assessed as increase in FTH1 expression at 30 mg/kg,ip administrated daily for 14 days by immunohistochemistry; format: functional, organism-based; settings: time 14.0 day
HCT-116 [10] = experiment: Antitumor activity against human HCT-116 cells xenografted in BALB/c mouse assessed as reduction in tumor density at 60 mg/kg,ip administrated daily for 14 days by hematoxylin and eosin staining based microscopic analysis; format: functional, organism-based; settings: time 14.0 day
HCT-116 [11] = experiment: Induction of autophagy in human HCT-116 cells assessed as increase in 4-HNE level at 20 uM incubated for 12 hrs by ELISA; format: functional, cell-based
HT-29 = experiment: Cytotoxicity against human HT-29 cells assessed as inhibition of cell growth incubated for 48 hrs by CCK-8 assay; format: functional, cell-based; settings: HT-29, 48 h
[12] = Toxicity in BALB/c mouse xenografted with human HCT-116 cells assessed as histopathological changes in heart at 60 mg/kg,ip administrated daily for 14 days by hematoxylin and eosin staining based microscopic analysis; format: organism-based; settings: in vivo, 336 h, time 14 day
HCT-116 [13] = experiment: Induction of ferroptosis in human HCT-116 cells assessed as increase in ferrous ion level in lysosomes at 20 uM incubated for 12 hrs by ferroOrange probe based confocal fluorescence microscopic analysis; format: functional, cell-based
HCT-116 [14] = experiment: Induction of ferroptosis in human HCT-116 cells assessed as increase in intracellular ferrous ion level incubated for 12 hrs by ferroOrange probe based confocal fluorescence microscopic analysis; format: functional, cell-based
HCT-116 [15] = experiment: Antitumor activity against human HCT-116 cells xenografted in BALB/c mouse assessed as reduction in tumor density at 30 mg/kg,ip administrated daily for 14 days by hematoxylin and eosin staining based microscopic analysis; format: functional, organism-based; settings: time 14.0 day
[16] = Toxicity in BALB/c mouse xenografted with human HCT-116 cells assessed as histopathological changes in kidney at 60 mg/kg,ip administrated daily for 14 days by hematoxylin and eosin staining based microscopic analysis; format: organism-based; settings: in vivo, 336 h, time 14 day
[17] = Toxicity in BALB/c mouse xenografted with human HCT-116 cells assessed as change in body weight at 30 mg/kg,ip administrated daily for 14 days; format: organism-based; settings: in vivo, 336 h, time 14 day
HCT-116 [18] = experiment: Induction of ferroptosis in human HCT-116 cells assessed as increase in intracellular lipid ROS accumulation at 5 to 20 uM incubated for 12 hrs by C11 BODIPY probe based fluorescence microscopic analysis; format: functional, cell-based; settings: dose 5-20 µM
HCT-116 [19] = experiment: Induction of ferroptosis in human HCT-116 cells assessed as increase in intracellular ferrous ion level at 20 uM incubated for 12 hrs in presence of ferroptosis inhibitor, Ferrostatin-1 by ferroOrange probe based flow cytometric analysis; format: functional, cell-based
HCT-116 [20] = experiment: Induction of ferroptosis in human HCT-116 cells assessed as increase in ferrous ion level in lysosomes at 20 uM incubated for 12 hrs by Hoechst 33342 staining based confocal fluorescence microscopic analysis; format: functional, cell-based
HCT-116 [21] = experiment: Induction of ferritin autophagy in human HCT-116 cells assessed as upregulation of NCOA4 protein expression at 20 uM incubated for 12 hrs by immunoprecipitation assay; format: functional, cell-based
[22] = Toxicity in BALB/c mouse xenografted with human HCT-116 cells assessed as histopathological changes in heart at 30 mg/kg,ip administrated daily for 14 days by hematoxylin and eosin staining based microscopic analysis; format: organism-based; settings: in vivo, 336 h, time 14 day
HCT-116 [23] = experiment: Cytotoxicity against human HCT-116 cells assessed as inhibition of cell growth incubated for 24 hrs by CCK-8 assay; format: functional, cell-based; settings: HCT-116, 24 h
[24] = Toxicity in BALB/c mouse xenografted with human HCT-116 cells assessed as histopathological changes in spleen at 60 mg/kg,ip administrated daily for 14 days by hematoxylin and eosin staining based microscopic analysis; format: organism-based; settings: in vivo, 336 h, time 14 day
HCT-116 [25] = experiment: Antitumor activity against human HCT-116 cells xenografted in BALB/c mouse assessed as tumor cell rupture at 60 mg/kg,ip administrated daily for 14 days by hematoxylin and eosin staining based microscopic analysis; format: functional, organism-based; settings: time 14.0 day
HCT-116 [26] = experiment: Antitumor activity against human HCT-116 cells xenografted in BALB/c mouse assessed as tumor cell rupture at 30 mg/kg,ip administrated daily for 14 days by hematoxylin and eosin staining based microscopic analysis; format: functional, organism-based; settings: time 14.0 day
[27] = Toxicity in BALB/c mouse xenografted with human HCT-116 cells assessed as change in body weight at 60 mg/kg,ip administrated daily for 14 days; format: organism-based; settings: in vivo, 336 h, time 14 day
HCT-116 [28] = experiment: Induction of autophagy in human HCT-116 cells transfected with mRFP-GFP-LC3B assessed as formation of autolysosomes by measuring reduction in GFP to mRFP fluorescence ratio at 5 to 20 uM incubated for 12 hrs by Lyso tracker red staining based confocal fluorescence microscopic analysis; format: functional, cell-based; settings: dose 5-20 µM
HCT-116 [29] = experiment: Induction of ferritin autophagy in human HCT-116 cells assessed as upregulation of ratio of LC3B-II to LC3B-I protein expression at 5 to 20 uM incubated for 12 hrs by Western blotting analysis; format: functional, cell-based; settings: dose 5-20 µM
HCT-116 [30] = experiment: Antitumor activity against human HCT-116 cells xenografted in BALB/c mouse assessed as increase in 4-HNE level in tumor at 30 mg/kg,ip administrated daily for 14 days by ELISA; format: functional, organism-based; settings: time 14.0 day
HCT-116 [31] = experiment: Induction of ferroptosis in human HCT-116 cells assessed as increase in intracellular lipid ROS accumulation at 20 uM incubated for 12 hrs in presence of ferroptosis inhibitor, Ferrostatin-1 by C11 BODIPY probe based flow cytometry; format: functional, cell-based
HCT-116 [32] = experiment: Antitumor activity against human HCT-116 cells xenografted in BALB/c mouse assessed as reduction in tumor volume at 60 mg/kg,ip administrated daily for 14 days; format: functional, organism-based; settings: time 14.0 day
[33] = Toxicity in BALB/c mouse xenografted with human HCT-116 cells assessed as histopathological changes in lung at 30 mg/kg,ip administrated daily for 14 days by hematoxylin and eosin staining based microscopic analysis; format: organism-based; settings: in vivo, 336 h, time 14 day

In the case of `C=C(Cl)C(=O)NCCCCCCCCCCCC(=O)Oc1c(OC)ccc2c1[C@@]13CCN(C)[C@@H](C2)[C@H]1C=C(OC)C(=O)C3`, the Activity (HCT-116 [1]) is reported as “Active”, the Activity (HCT-116 [2]) is reported as “Active” and the Activity [3] is reported as “Non-Toxic”. The Activity (HCT-116 [4]) was “Active”, the IC50 (HCT-116 [5]) was 15.1 µM and the IC50 at 48 h [6] was 19 µM. For the same compound, the Activity (HCT-116 [7]) was “Active”, the Activity (HCT-116 [8]) was “inactive” and the Activity (HCT-116 [9]) was “Active”. The Activity (HCT-116 [10]) was “Active”, the Activity (HCT-116 [11]) was “Active” and the IC50 (HT-29) was 6.71 µM. For the same compound, the Activity [12] was “Non-Toxic”, the Activity (HCT-116 [13]) was “Active” and the Activity (HCT-116 [14]) was “Dose-Dependent Effect”. For the same compound, the Activity (HCT-116 [15]) was “Active”, the Activity [16] was “Non-Toxic” and the Activity [17] was “Non-Toxic”. For the same compound, the Activity (HCT-116 [18]) was “Active”, the Activity (HCT-116 [19]) was “inactive” and the Activity (HCT-116 [20]) was “Active”. For the same compound, the Activity (HCT-116 [21]) was “inactive”, the Activity [22] was “Non-Toxic” and the IC50 (HCT-116 [23]) was 11.2 µM. For the same compound, the Activity [24] was “Non-Toxic”, the Activity (HCT-116 [25]) was “Active” and the Activity (HCT-116 [26]) was “Active”. The Activity [27] was “Non-Toxic”, the Activity (HCT-116 [28]) was “Active” and the Activity (HCT-116 [29]) was “Active”. The Activity (HCT-116 [30]) was “Active”, the Activity (HCT-116 [31]) was “Active” and the Activity (HCT-116 [32]) was “Active”. For the same compound, the Activity [33] was “Non-Toxic”.
